Measured values published in US9556187B2, “Substituted pyrrolo[3′,2′:5,6]pyrido[4,3-d]pyrimidines and JAK inhibitors comprising the same” (priority 2011, dated 2017).

Experiments:
Assay type in all cases: biochemical
JAK1 [1] = target: T1, JAK1 (Homo sapiens (Human), UniProt P23458); assay: Enzyme assay (LANCE Ultra ULight-JAK1 Peptide), JAK1; details: ATP 100 μM
JAK2 [2] = target: T2, JAK2 (Homo sapiens (Human), UniProt O60674); assay: Enzyme assay (LANCE Ultra ULight-JAK1 Peptide), JAK2; details: ATP 100 μM
Tyk2 [3] = target: T3, Tyk2 (Homo sapiens (Human), UniProt P29597); assay: Enzyme assay (LANCE Ultra ULight-JAK1 Peptide), Tyk2; details: ATP 100 μM
JAK1 [4] = target: T1, JAK1; assay: Enzyme assay, JAK1 (Assay Example^b 1); details: ATP 100 μM
Experimental: (§1) JAK1, JAK2, JAK3 and Tyk2 were purchased from Carna Biosciences, Inc. As the substrate, LANCE Ultra ULight-JAK1 Peptide (manufactured by PerkinElmer Co., Ltd. (PE)) was used. Dilute solutions of compounds and enzymes in assay buffer (50 mM HEPES pH7.5, 1 mM EGTA, 1 mM MgCl2, 2 mM DTT, 0.01% Tween20) were dispensed into wells of a 384-well black plate. After 5 minutes of preincubation, dilute solutions of the substrate and ATP (adenosine triphosphate) were added at a final concentration of 100 μM, and the plate was incubated at room temperature for 2 hours. After addition of a termination reagent containing EDTA (ehylenediamine tetraacetic acid) at a final concentration of 10 mM, LANCE Eu-W1024 Anti-phosphotyrosine (PT66) (manufactured by PE) was added, and after 1 hour of incubation, the fluorescences were measured with ARVO-HTS. From the plot of logarithm of a compound concentration and inhibitory activity, the IC50 was calculated.

Tyk2 [5] = target: T3, Tyk2; assay: Enzyme assay, Tyk2 (Assay Example^b 1); details: ATP 100 μM
Experimental: as §1

JAK3 = JAK3 (Homo sapiens (Human), UniProt P52333); assay: Enzyme assay, JAK3 (Assay Example^b 1)
Experimental: as §1

JAK2 [6] = target: T2, JAK2; assay: Enzyme assay, JAK2 (Assay Example^b 1); details: ATP 100 μM
Experimental: as §1

T1 sequence (P23458 whole entry): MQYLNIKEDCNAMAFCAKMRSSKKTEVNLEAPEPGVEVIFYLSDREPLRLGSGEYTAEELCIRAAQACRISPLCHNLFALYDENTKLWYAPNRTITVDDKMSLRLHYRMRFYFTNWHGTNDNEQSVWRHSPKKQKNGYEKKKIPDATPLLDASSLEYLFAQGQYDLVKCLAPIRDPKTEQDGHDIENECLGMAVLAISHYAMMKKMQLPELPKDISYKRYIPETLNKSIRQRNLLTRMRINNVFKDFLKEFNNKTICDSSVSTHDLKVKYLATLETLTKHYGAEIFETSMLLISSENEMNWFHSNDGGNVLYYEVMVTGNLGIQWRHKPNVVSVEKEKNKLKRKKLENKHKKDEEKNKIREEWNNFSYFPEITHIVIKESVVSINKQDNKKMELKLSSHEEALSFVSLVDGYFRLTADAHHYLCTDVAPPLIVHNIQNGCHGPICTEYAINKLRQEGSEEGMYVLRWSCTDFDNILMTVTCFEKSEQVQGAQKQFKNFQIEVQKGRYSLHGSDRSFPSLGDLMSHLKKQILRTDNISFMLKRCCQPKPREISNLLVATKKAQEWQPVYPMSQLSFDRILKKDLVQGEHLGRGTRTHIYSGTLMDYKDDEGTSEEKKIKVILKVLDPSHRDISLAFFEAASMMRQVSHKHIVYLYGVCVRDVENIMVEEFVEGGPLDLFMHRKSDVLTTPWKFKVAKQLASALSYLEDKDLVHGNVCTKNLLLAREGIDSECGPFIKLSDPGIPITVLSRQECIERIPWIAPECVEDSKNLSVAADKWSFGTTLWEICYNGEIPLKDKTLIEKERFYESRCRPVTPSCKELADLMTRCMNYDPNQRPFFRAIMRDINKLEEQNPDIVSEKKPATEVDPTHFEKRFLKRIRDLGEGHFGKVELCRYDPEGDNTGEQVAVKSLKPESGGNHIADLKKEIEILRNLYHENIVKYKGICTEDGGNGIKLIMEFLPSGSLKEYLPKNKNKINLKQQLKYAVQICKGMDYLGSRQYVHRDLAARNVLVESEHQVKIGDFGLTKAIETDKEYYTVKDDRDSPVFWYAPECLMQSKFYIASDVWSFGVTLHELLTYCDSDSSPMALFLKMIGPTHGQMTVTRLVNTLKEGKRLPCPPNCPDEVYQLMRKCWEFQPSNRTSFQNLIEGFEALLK
T3 sequence (P29597 whole entry): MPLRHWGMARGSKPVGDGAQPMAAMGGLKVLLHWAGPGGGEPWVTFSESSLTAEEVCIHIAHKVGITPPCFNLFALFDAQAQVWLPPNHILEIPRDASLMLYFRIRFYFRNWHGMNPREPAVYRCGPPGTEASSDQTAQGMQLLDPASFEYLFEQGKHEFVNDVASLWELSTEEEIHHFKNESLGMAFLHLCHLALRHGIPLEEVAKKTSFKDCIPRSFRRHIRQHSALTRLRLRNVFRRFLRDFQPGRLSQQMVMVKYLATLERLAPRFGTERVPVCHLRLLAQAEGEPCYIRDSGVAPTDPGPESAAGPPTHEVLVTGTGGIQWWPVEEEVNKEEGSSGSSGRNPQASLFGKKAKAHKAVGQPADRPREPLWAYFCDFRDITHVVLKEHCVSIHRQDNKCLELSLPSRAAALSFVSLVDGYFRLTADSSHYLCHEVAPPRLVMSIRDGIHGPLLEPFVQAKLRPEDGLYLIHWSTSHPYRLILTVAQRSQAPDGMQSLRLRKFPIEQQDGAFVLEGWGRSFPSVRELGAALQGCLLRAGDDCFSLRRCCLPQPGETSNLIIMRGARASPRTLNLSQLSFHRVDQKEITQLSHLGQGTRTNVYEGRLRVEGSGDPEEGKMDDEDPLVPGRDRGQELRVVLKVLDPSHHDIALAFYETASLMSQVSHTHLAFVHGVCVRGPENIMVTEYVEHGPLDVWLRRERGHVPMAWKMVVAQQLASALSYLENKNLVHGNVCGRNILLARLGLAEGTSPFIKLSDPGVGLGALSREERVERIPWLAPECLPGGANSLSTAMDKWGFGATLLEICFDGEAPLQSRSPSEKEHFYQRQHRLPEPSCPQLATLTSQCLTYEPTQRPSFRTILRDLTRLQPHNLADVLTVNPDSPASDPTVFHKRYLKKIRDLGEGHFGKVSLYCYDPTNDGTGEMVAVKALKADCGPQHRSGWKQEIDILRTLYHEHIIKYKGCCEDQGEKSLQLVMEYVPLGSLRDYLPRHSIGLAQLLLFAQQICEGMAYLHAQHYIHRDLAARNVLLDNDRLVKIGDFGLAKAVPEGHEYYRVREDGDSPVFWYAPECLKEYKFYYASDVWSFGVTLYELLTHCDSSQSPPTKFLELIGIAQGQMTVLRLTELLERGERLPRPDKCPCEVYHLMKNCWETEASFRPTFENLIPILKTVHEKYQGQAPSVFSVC
Sequence of JAK3 (P52333 whole entry): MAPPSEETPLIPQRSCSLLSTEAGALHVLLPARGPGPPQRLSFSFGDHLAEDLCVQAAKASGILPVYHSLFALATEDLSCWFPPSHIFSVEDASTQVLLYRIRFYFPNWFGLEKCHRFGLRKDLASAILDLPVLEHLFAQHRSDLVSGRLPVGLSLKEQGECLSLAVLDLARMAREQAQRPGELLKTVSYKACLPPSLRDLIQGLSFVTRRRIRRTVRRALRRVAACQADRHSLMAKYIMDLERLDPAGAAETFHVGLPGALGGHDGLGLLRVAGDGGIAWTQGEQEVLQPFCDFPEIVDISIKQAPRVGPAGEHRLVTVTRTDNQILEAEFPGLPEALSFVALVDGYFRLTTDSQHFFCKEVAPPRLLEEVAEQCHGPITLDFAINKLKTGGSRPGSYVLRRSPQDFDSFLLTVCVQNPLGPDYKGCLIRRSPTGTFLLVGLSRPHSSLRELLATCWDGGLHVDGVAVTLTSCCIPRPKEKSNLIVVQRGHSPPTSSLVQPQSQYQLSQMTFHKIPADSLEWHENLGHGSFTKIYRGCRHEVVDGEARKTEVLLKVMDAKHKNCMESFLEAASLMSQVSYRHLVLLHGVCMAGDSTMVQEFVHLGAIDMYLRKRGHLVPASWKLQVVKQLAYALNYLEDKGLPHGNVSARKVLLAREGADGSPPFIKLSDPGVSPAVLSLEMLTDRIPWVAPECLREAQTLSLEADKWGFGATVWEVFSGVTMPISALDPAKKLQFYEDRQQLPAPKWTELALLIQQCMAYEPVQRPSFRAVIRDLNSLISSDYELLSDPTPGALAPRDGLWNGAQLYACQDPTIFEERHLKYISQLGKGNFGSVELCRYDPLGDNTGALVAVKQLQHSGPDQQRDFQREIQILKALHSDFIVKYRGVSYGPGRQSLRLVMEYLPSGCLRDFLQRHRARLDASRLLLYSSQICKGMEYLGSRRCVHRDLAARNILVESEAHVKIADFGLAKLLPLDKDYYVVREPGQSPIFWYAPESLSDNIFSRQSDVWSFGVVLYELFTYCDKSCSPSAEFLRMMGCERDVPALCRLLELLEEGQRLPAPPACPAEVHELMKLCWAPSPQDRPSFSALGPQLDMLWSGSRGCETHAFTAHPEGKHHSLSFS

Row | Structure (SMILES) | IC50 (JAK1 [1]; Synthetic Examples^a) [µM] | IC50 (JAK2 [2]; Synthetic Examples^a) [µM] | IC50 (JAK3) [nM] | further results
1 | c1ccc2sc(CN3CCC(c4nnn5cnc6[nH]ccc6c45)CC3)nc2c1 [Ex 232] | 0.0053 | 0.033 |  | IC50 (Tyk2 [3]; Synthetic Examples^a): 0.74 µM
2 | CC1(C)CCC(c2nnn3cnc4[nH]ccc4c23)CC1 [Ex 64] |  |  |  | IC50 (JAK1 [1]): 0.033 µM; IC50 (JAK2 [2]): 0.12 µM; IC50 (Tyk2 [3]): 0.31 µM; IC50 (JAK1 [4]): 0.012 µM
3 | C[C@@H]1CCN(C)C[C@@H]1n1ccc(=O)c2cnc3[nH]ccc3c21 (racemic) [Synthetic Example^b 6b, rac-1-[(3R,4R)-1,4-Dimethylpiperidin-3-yl]-1H-pyrrolo[2,3-h][1,6]naphthyridin-4(7H)-one] |  |  | 250 | IC50 (Tyk2 [5]): 3.9 µM; IC50 (JAK2 [6]): 0.38 µM
4 | Brc1nc(CN2CCC(c3nnn4cnc5[nH]ccc5c34)CC2)sc1Br [Ex 233] | 0.021 | 0.071 |  | 
5 | C[C@@H]1CCN(Cc2cccc(F)c2F)C[C@@H]1n1ccc(=O)c2cnc3[nH]ccc3c21 (racemic) [Synthetic Example^b 6a, rac-1-[(3R,4R)-1-(2,3-Difluorobenzyl)-4-methylpiperidin-3-yl]-1H-pyrrolo[2,3-h][1,6]naphthyridin-4(7H)-one] |  |  | 31 | 
6 | CC(c1ccccc1)N1CCC(c2nnn3cnc4[nH]ccc4c23)CC1 (racemic) [Ex 245] | 0.017 | 0.062 |  | 
